The OligoGym collection
Values joined by “and” are separate entries in the source; they are usually repeats but may differ in a detail not shown here. Equal entries are not always repeated. After the bases stand the sugars from the 5' end (letter, count) and the backbone: PS all phosphorothioate, else s phosphorothioate and o phosphodiester by linkage. Methylation of C is not given here. e = 2'-O-(2-methoxyethyl) (MOE); k = constrained ethyl (cEt); d = 2'-deoxy (DNA)

Molecular target: SOD1
Settings: ASO

Sequence: ACCTTCACTGGTCCATT (sugars e3 k2 d7 k2 e3, PS)
- target mRNA inhibition (HepG2, 3 µM): 44%

Sequence: ACTGGGCCGTCGCCCTTCAG (sugars e5 d10 e5, PS)
- target mRNA inhibition (HepG2, 4 µM): 26%

Sequence: ACTTTATAGGCCAGACCTCC (sugars e5 d10 e5, PS)
- target mRNA inhibition (HepG2, 4 µM): 64%

Sequence: ACTTTCCTTCTGCTCGA (sugars e3 k2 d7 k2 e3, PS)
- target mRNA inhibition (HepG2, 3 µM): 0%

Sequence: ACTTTCTTCATTTCCAC (sugars e3 k2 d7 k2 e3, PS)
- target mRNA inhibition (HepG2, 3 µM): 15%

Sequence: AGAAATTCTGACAAGTT (sugars e3 k2 d7 k2 e3, PS)
- target mRNA inhibition (HepG2, 3 µM): 8%

Sequence: AGACTACATCCAAGGGA (sugars e3 k2 d7 k2 e3, PS)
- target mRNA inhibition (HepG2, 3 µM): 39%

Sequence: AGAGGATTAAAGTGAGG (sugars e3 k2 d7 k2 e3, PS)
- target mRNA inhibition (HepG2, 3 µM): 16%

Sequence: AGCAGTCACATTGCCCA (sugars e3 k2 d7 k2 e3, PS)
- target mRNA inhibition (HepG2, 3 µM): 18%

Sequence: AGCTAGCAGGATAACAG (sugars e2 k2 d9 k2 e2, PS)
- target mRNA inhibition (HepG2, 4 µM): 54%

Sequence: AGGACCTGCACTGGTAC (sugars e3 k2 d7 k2 e3, PS)
- target mRNA inhibition (HepG2, 3 µM): 4%

Sequence: AGGATAACAGATGAGTT (sugars e2 k2 d9 k2 e2, PS)
- target mRNA inhibition (HepG2, 0.1875 µM): 32%
- target mRNA inhibition (HepG2, 0.75 µM): 62%
- target mRNA inhibition (HepG2, 3 µM): 89%
- target mRNA inhibition (HepG2, 4 µM): 86%
- target mRNA inhibition (HepG2, 12 µM): 98%

Sequence: AGGTCATTGAAACAGAC (sugars e2 k2 d8 k2 e3, PS)
- target mRNA inhibition (HepG2, 5 µM): 40%

Sequence: AGTCATCTGCTTTTTCA (sugars e3 k2 d7 k2 e3, PS)
- target mRNA inhibition (HepG2, 3 µM): 76%

Sequence: AGTCTGGCAAAATACAG (sugars e3 k2 d7 k2 e3, PS)
- target mRNA inhibition (HepG2, 3 µM): 1%

Sequence: AGTGTTTAATGTTTAT (sugars kekeddddddddekek, linkages s1 o3 s8 o1 s2)
- target mRNA inhibition (A431, 0.12 µM): 2%
- target mRNA inhibition (A431, 0.6 µM): 31%
- target mRNA inhibition (A431, 3 µM): 47%
- target mRNA inhibition (A431, 15 µM): 61%

Sequence: AGTGTTTAATGTTTATC (sugars e2 k2 d9 k2 e2, PS)
- target mRNA inhibition (HepG2, 0.1875 µM): 35%
- target mRNA inhibition (HepG2, 0.75 µM): 66%
- target mRNA inhibition (HepG2, 3 µM): 83%
- target mRNA inhibition (HepG2, 4 µM): 75%
- target mRNA inhibition (HepG2, 5 µM): 80%
- target mRNA inhibition (HepG2, 12 µM): 84% and 87%

Sequence: AGTGTTTAATGTTTATCA (sugars e5 d8 e5, linkages s1 o3 s9 o2 s2)
- target mRNA inhibition (A431, 0.12 µM): 2%
- target mRNA inhibition (A431, 0.6 µM): 35%
- target mRNA inhibition (A431, 3 µM): 52%
- target mRNA inhibition (A431, 15 µM): 67%
- target mRNA inhibition (HepG2, 0.222 µM): 33%
- target mRNA inhibition (HepG2, 0.667 µM): 58%
- target mRNA inhibition (HepG2, 2 µM): 74%
- target mRNA inhibition (HepG2, 6 µM): 86%

Sequence: AGTTTAATACCCATCTG (sugars e2 k2 d8 k2 e3, PS)
- target mRNA inhibition (HepG2, 5 µM): 29%

Sequence: AGTTTCTCACTACAGGT (sugars e2 k2 d9 k2 e2, PS)
- target mRNA inhibition (HepG2, 5 µM): 50%

Sequence: ATAAAACTATACAAATC (sugars e3 k2 d7 k2 e3, PS)
- target mRNA inhibition (HepG2, 3 µM): 14%

Sequence: ATAAGTGCCATACAGGG (sugars e2 k2 d9 k2 e2, PS)
- target mRNA inhibition (HepG2, 5 µM): 46%

Sequence: ATACAAATCTTCCAAGT (sugars e3 k2 d7 k2 e3, PS)
- target mRNA inhibition (HepG2, 3 µM): 15%

Sequence: ATACAGGTCATTGAAAC (sugars e3 k2 d7 k2 e3, PS)
- target mRNA inhibition (HepG2, 3 µM): 14%

Sequence: ATAGAGGATTAAAGTGA (sugars e3 k2 d7 k2 e3, PS)
- target mRNA inhibition (HepG2, 3 µM): 9%

Sequence: ATAGCCTCATAATAAGT (sugars e2 k2 d8 k2 e3, PS)
- target mRNA inhibition (HepG2, 5 µM): 20%

Sequence: ATAGCCTCATAATAAGT (sugars e2 k2 d9 k2 e2, PS)
- target mRNA inhibition (HepG2, 5 µM): 27%

Sequence: ATCAGTTTCTCACTACA (sugars e2 k2 d9 k2 e2, PS)
- target mRNA inhibition (HepG2, 5 µM): 44%

Sequence: ATCCAAGGGAATGTTTA (sugars e3 k2 d7 k2 e3, PS)
- target mRNA inhibition (HepG2, 3 µM): 42%

Sequence: ATCCTTTGGCCCACCGT (sugars e3 k2 d7 k2 e3, PS)
- target mRNA inhibition (HepG2, 3 µM): 51%

Sequence: ATCTGTGATTTAAGTCT (sugars e2 k2 d8 k2 e3, PS)
- target mRNA inhibition (HepG2, 5 µM): 35%

Sequence: ATCTTCCAAGTGATCAT (sugars e2 k2 d8 k2 e3, PS)
- target mRNA inhibition (HepG2, 5 µM): 38%

Sequence: ATGATGCCCTGCACTGGGCC (sugars e5 d10 e5, PS)
- target mRNA inhibition (HepG2, 4 µM): 20%

Sequence: ATGCCTCTCTTCATCCT (sugars e3 k2 d7 k2 e3, PS)
- target mRNA inhibition (HepG2, 3 µM): 0%

Sequence: ATGTTTATCAGGATACA (sugars eeeeddddddddkekee, linkages s1 o2 s9 o2 s2)
- target mRNA inhibition (A431, 0.062 µM): 12%
- target mRNA inhibition (A431, 0.185 µM): 19%
- target mRNA inhibition (A431, 0.556 µM): 29%
- target mRNA inhibition (A431, 1.667 µM): 38%
- target mRNA inhibition (A431, 5 µM): 51% and 50%
- target mRNA inhibition (A431, 15 µM): 61%
- target mRNA inhibition (SH-SY5Y, 0.062 µM): 15%
- target mRNA inhibition (SH-SY5Y, 0.185 µM): 27%
- target mRNA inhibition (SH-SY5Y, 0.556 µM): 52%
- target mRNA inhibition (SH-SY5Y, 1.667 µM): 63%
- target mRNA inhibition (SH-SY5Y, 5 µM): 79%
- target mRNA inhibition (SH-SY5Y, 15 µM): 92%

Sequence: ATGTTTATTGGGCGATC (sugars e2 k2 d9 k2 e2, PS)
- target mRNA inhibition (HepG2, 4 µM): 64%
